Experimental data published in paper PMC10620931, “Assay Development for Metal-Dependent Enzymes—Influence of Reaction Buffers on Activities and Kinetic Characteristics” (ACS Omega, 2023).

System: T1, BLC23O
T1 construct: 6xHis-tag, expressed in E. coli BL21 (DE3); Ni-NTA and size exclusion; Mn2+-dependent
Assay: absorbance of ring-cleavage product at […] nm, Michaelis-Menten fit
Assay type: biochemical, Halalkalibacterium ligniniphilum
Conditions: 50 mM HEPES pH 7.6, 10 μM Mn2+, 32.5 °C (optimal conditions)

Work on `Cc1cccc(O)c1O` [3-methylcatechol] yielded a Km of 540 ± 20 µM.
